Source: ChEMBL document CHEMBL1275538, “In vitro activity of OPT-80 tested against clinical isolates of toxin-producing Clostridium difficile” (Antimicrob Agents Chemother, 2008)
In brackets after ≈: the same amount, converted by molar mass.

How the values were obtained:
Clostridioides difficile [1] = assay: Antibacterial activity against Clostridium difficile by M11-A5 CLSI agar dilution; assay type: functional
Clostridioides difficile [2] = assay: Antibacterial activity against Clostridium difficile by M11-A6 CLSI agar dilution; assay type: functional
Clostridioides difficile [3] = assay: Antibacterial activity against Clostridium difficile by M11-A7 CLSI agar dilution; assay type: functional
Clostridioides difficile [4] = assay: Antibacterial activity against Clostridium difficile by agar dilution method using Wilkins-Chalgren agar; assay type: functional
[5] = Apparent elimination half-life in syrian golden hamster at 400 mg/kg; assay type: ADME, organism-based, Mesocricetus auratus; set-up: dose 400 mg/kg; conditions: in vivo, read-out: beta t1/2 (converted)
Clostridioides difficile [6] = assay: Antibacterial activity against toxin-positive Clostridium difficile clinical isolate by agar dilution method; assay type: functional
Clostridioides difficile [7] = assay: Antibacterial activity against Clostridium difficile by broth microdilution method using Wilkins-Chalgren broth; assay type: functional
[8] = Cmax in syrian golden hamster serum at 200 mg administered BID after 1.5 hrs; assay type: ADME, organism-based, Mesocricetus auratus; set-up: dose 200 mg
Clostridioides difficile [9] = assay: Antibacterial activity against toxin-positive Clostridium difficile clinical isolate by agar dilution method in presence of Tazobactam; assay type: functional
Clostridioides difficile [10] = assay: Antibacterial activity against toxin-positive Clostridium difficile clinical isolate by agar dilution method in presence of clavulanic acid; assay type: functional
Clostridioides difficile [11] = assay: Antibacterial activity against toxin-positive Clostridium difficile clinical isolate assessed as percent of susceptible isolates by agar dilution method; assay type: functional

Q: For CCc1c(Cl)c(O)c(Cl)c(O)c1C(=O)O[C@H]1[C@H](O)[C@H](OC)[C@H](OC/C2=C\C=C\C[C@H](O)/C(C)=C/[C@H](CC)[C@@H](O[C@@H]3OC(C)(C)[C@@H](OC(=O)C(C)C)[C@H](O)[C@@H]3O)/C(C)=C/C(C)=C/C[C@@H]([C@@H](C)O)OC2=O)O[C@@H]1C [FIDAXOMICIN], which MIC (Clostridioides difficile [1]) is on record?
A: ≤ 0.06 µg/mL

Q: What about the MIC50 (Clostridioides difficile [1]) of the same molecule?
A: ≤ 0.016 µg/mL

Q: What about the MIC90 (Clostridioides difficile [1]) of the same molecule?
A: 0.125 µg/mL (≈ 0.118 µM)

Q: And the MIC50 (Clostridioides difficile [2])?
A: 0.125 µg/mL (≈ 0.118 µM)

Q: What about the MIC90 (Clostridioides difficile [2]) of the same molecule?
A: 0.125 µg/mL (≈ 0.118 µM)

Q: And the MIC50 (Clostridioides difficile [3])?
A: 0.25 µg/mL (≈ 0.236 µM)

Q: What about the MIC90 (Clostridioides difficile [3]) of the same molecule?
A: 0.5 µg/mL (≈ 0.473 µM)

Q: And the MIC50 (Clostridioides difficile [4])?
A: 0.25 µg/mL (≈ 0.236 µM)

Q: And the MIC90 (Clostridioides difficile [4])?
A: 0.25 µg/mL (≈ 0.236 µM)

Q: And the half-life [5]?
A: 56.4 min

Q: And the MIC50 (Clostridioides difficile [6])?
A: 0.25 µg/mL (≈ 0.236 µM)

Q: And the MIC90 (Clostridioides difficile [6])?
A: 0.5 µg/mL (≈ 0.473 µM)

Q: What about the MIC50 (Clostridioides difficile [7]) of the same molecule?
A: 0.0019 µg/mL (≈ 0.0018 µM)

Q: What about the MIC90 (Clostridioides difficile [7]) of the same molecule?
A: 0.0078 µg/mL (≈ 0.00737 µM)

Q: And the Cmax [8]?
A: 26.5 ng/mL

Q: With CCN1CCN(C(=O)N[C@@H](C(=O)N[C@@H]2C(=O)N3[C@@H]2SC(C)(C)[C@@H]3C(=O)O)c2ccccc2)C(=O)C1=O [PIPERACILLIN] as the molecule, how does the MIC50 (Clostridioides difficile [9]) read?
A: 8 µg/mL

Q: And the MIC90 (Clostridioides difficile [9])?
A: 8 µg/mL

Q: Which MIC50 (Clostridioides difficile [10]) does the source give for CC1(C)S[C@@H]2[C@H](NC(=O)[C@H](N)c3ccc(O)cc3)C(=O)N2[C@H]1C(=O)O [AMOXICILLIN] here?
A: 1 µg/mL

Q: And the MIC90 (Clostridioides difficile [10])?
A: 1 µg/mL

Q: Which MIC50 (Clostridioides difficile [6]) does the source give for C[C@@H](O)[C@H]1C(=O)N2C(C(=O)O)=C(S[C@@H]3CN[C@H](C(=O)N(C)C)C3)[C@H](C)[C@H]12 [MEROPENEM] here?
A: 2 µg/mL (≈ 5.22 µM)

Q: And the MIC90 (Clostridioides difficile [6])?
A: 2 µg/mL (≈ 5.22 µM)

Q: What does the source list for CO[C@H]1/C=C/O[C@@]2(C)Oc3c(C)c(O)c4c(O)c(c(/C=N/N5CCN(C)CC5)c(O)c4c3C2=O)NC(=O)/C(C)=C\C=C\[C@H](C)[C@H](O)[C@@H](C)[C@@H](O)[C@@H](C)[C@H](OC(C)=O)[C@@H]1C [RIFAMPIN]?
A: MIC50 (Clostridioides difficile [6]): 0.015 µg/mL (≈ 0.0182 µM); MIC90 (Clostridioides difficile [6]): 0.015 µg/mL (≈ 0.0182 µM)

Q: Which Activity (Clostridioides difficile [11]) does the source give for CO/N=C(\C(=O)N[C@@H]1C(=O)N2C(C(=O)O)=C(CSc3nc(=O)c(O)nn3C)CS[C@H]12)c1csc(N)n1 [CEFTRIAXONE] here?
A: 1%

Q: And the MIC50 (Clostridioides difficile [6])?
A: 32 µg/mL (≈ 57.7 µM)

Q: And the MIC90 (Clostridioides difficile [6])?
A: 128 µg/mL (≈ 231 µM)

Q: What does the source list for CCC[C@@H]1C[C@@H](C(=O)N[C@@H]([C@H]2O[C@H](SC)[C@H](O)[C@@H](O)[C@H]2O)[C@H](C)Cl)N(C)C1 [CLINDAMYCIN]?
A: Activity (Clostridioides difficile [11]): 17.3%; MIC50 (Clostridioides difficile [6]): 8 µg/mL (≈ 18.8 µM); MIC90 (Clostridioides difficile [6]): > 16 µg/mL
